Target: T1, RORc ligand binding domain (Homo sapiens, UniProt P51449)
T1 construct: host or cells: E. coli
T1 sequence (P51449 269-508 limits assumed): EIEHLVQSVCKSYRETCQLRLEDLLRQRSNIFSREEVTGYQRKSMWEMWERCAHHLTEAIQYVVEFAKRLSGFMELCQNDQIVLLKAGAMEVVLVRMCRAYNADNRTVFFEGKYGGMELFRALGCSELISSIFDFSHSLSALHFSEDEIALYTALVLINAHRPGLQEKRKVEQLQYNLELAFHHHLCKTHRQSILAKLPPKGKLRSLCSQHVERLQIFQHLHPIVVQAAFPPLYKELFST
Experiment: In Vitro RORc Ligand Binding Assay
Conditions: displacement of 25-[3H]hydroxycholesterol (6 nM), 0.6 ug/mL RORc receptor, 3 h at 25° C.
Protocol: In Vitro RORc Ligand Binding Assay This assay was used to determine a compound's potency in inhibiting activity of RORc by determining, Kiapp, IC50, or percent inhibition values. […] On day of the assay, 100 uL of 0.05% CHAPS (in deionized H2O) was added to all wells of the GFB Unifilter plate and allowed soak for 1 h. A wash buffer of 50 mM HEPES (pH 7.4), 150 mM NaCl, and 5 mM MgCl2 was prepared to wash the filter plate. To prepare an assay buffer, BSA was added to the wash buffer to reach 0.01% and DTT was added to reach 1 mM. […] The 20× compound stocks were diluted in DMSO with Assay Buffer 4-fold to reach 5× the final test concentration in 25% DMSO (10 uL compound+30 uL Assay Buffer). Solutions were mixed by aspiration several times with a pipette set on 50 uL volume. For the assay, 10 uL of 5× compound stock solutions in 25% DMSO were added to the assay plate in duplicate. For two point screening, 10 mM stock compound solutions were diluted in DMSO to obtain 200 uM (20× the high test concentration) and then diluted 10-fold further to reach 20 uM (20× the low test concentration). The 20× stocks were diluted 4-fold with Assay Buffer (10 uL compound+30 uL Assay Buffer) to reach 5× the test concentrations (50 uM and 5 uM) and 10 uL were added to two assay plates for the duplicate wells. […] Add 20 uL to all wells to reach 6 nM final concentration in the assay. […] Stock receptor solution was diluted in assay buffer to obtain 1.5 ug/mL in Assay Buffer. 20 uL was added to all wells. For No Receptor samples, 20 uL Assay Buffer was substituted for receptor solution. […] Following addition to the wells, the plates were incubated 3 h at 25° C. Using a Packard Filtermate Harvester, the filter plate were washed 4 times following transfer of the incubated samples. Plates were dry-filtered completely (2 h at 50° C. or overnight at room temperature). 50 uL Microscint 0 was added to all wells and read on Topcount protocol Inverted. […] For NSB wells, 1 uM 25-hydroxycholesterol was also present.

IC50	SMILES
0.126 µM	CC(C)CN(c1cccc(Cl)c1)S(=O)(=O)c1ccc(N2CCN(S(C)(=O)=O)CC2)cc1 [Compound 18, N-(3-Chloro-phenyl)-N-isobutyl-4-(4-methanesulfonyl-piperazin-1-yl)-benzenesulfonamide]
1.6 µM	CC(=O)N1CCN(c2ccc(S(=O)(=O)N(c3cccc(Cl)c3)C(C)C)cc2)CC1 [Compound 28, 4-(4-Acetyl-piperazin-1-yl)-N-(3-chloro-phenyl)-N-isopropyl-benzenesulfonamide]
0.07 µM	CC(=O)N1CCN(c2ccc(S(=O)(=O)N(Cc3ccccc3C(F)(F)F)C3(C)CCC3)cc2)CC1 [Compound 86, 4-(4-Acetyl-piperazin-1-yl)-N-(1-methyl-cyclobutyl)-N-(2-trifluoromethyl-benzyl)-benzenesulfonamide]
3.1 µM	CC(C)CN([C@@H](CO)c1ccccc1)S(=O)(=O)c1ccc(N2CCN(S(C)(=O)=O)CC2)cc1 [Compound 92, N-((R)-2-Hydroxy-1-phenyl-ethyl)-N-isobutyl-4-(4-methanesulfonyl-piperazin-1-yl)-benzenesulfonamide]
0.036 µM	CC(C)CN(c1cccc(Cl)c1)S(=O)(=O)c1ccc(N2CCN(S(C)(=O)=O)CC2)c(F)c1 [Compound 29, N-(3-Chloro-phenyl)-3-fluoro-N-isobutyl-4-(4-methanesulfonyl-piperazin-1-yl)-benzenesulfonamide]
0.011 µM	CC(C)CN(c1c(F)cccc1F)S(=O)(=O)c1ccc(OC2CCN(S(C)(=O)=O)CC2)cc1 [Compound 52, N-(2,6-Difluoro-phenyl)-N-isobutyl-4-(1-methanesulfonyl-piperidin-4-yloxy)-benzenesulfonamide]
0.191 µM	CC(C)CN(c1cccc(Cl)c1)S(=O)(=O)c1ccc(OC2CCN(S(=O)(=O)N(C)C)CC2)cc1 [Compound 39, 4-{4-[(3-Chloro-phenyl)-isobutyl-sulfamoyl]-phenoxy}-piperidine-1-sulfonic acid dimethylamide]
0.023 µM	CC(C)CN(Cc1ccccc1C(F)(F)F)S(=O)(=O)c1ccc(N2CCN(S(=O)(=O)N(C)C)CC2)cc1 [Compound 73, 4-{4-[Isobutyl-(2-trifluoromethyl-benzyl)-sulfamoyl]-phenyl}-piperazine-1-sulfonic acid dimethylamide]
0.025 µM	CN(C)S(=O)(=O)N1CCN(c2ccc(S(=O)(=O)N(Cc3ccccc3C(F)(F)F)C3CCC3)cc2)CC1 [Compound 77, 4-{4-[Cyclobutyl-(2-trifluoromethyl-benzyl)-sulfamoyl]-phenyl}-piperazine-1-sulfonic acid dimethylamide]
0.02 µM	CC(C)CN(Cc1ccccc1C(F)(F)F)S(=O)(=O)c1ccc(N2CCN(S(C)(=O)=O)CC2)cc1F [Compound 69, 2-Fluoro-N-isobutyl-4-(4-methanesulfonyl-piperazin-1-yl)-N-(2-trifluoromethyl-benzyl)-benzenesulfonamide]
0.023 µM	C=C(c1ccccc1)N(CC(C)C)S(=O)(=O)c1ccc(N2CCN(S(C)(=O)=O)CC2)cc1 [Compound 78, N-Isobutyl-4-(4-methanesulfonyl-piperazin-1-yl)-N-(1-phenyl-vinyl)-benzenesulfonamide]
0.271 µM	CC(C)CN(c1cccc(Cl)c1)S(=O)(=O)c1ccc(N[C@H]2CCCN(S(C)(=O)=O)C2)cc1 [Compound 45, N-(3-Chloro-phenyl)-N-isobutyl-4-((S)-1-methanesulfonyl-piperidin-3-ylamino)-benzenesulfonamide]
0.483 µM	CC(C)CN([C@H](C)c1ccccc1)S(=O)(=O)c1ccc(N2CCN(S(C)(=O)=O)CC2)cc1 [Compound 62, N-Isobutyl-4-(4-methanesulfonyl-piperazin-1-yl)-N-((R)-1-phenyl-ethyl)-benzenesulfonamide]
0.771 µM	CC(C)CN(c1cccc(Cl)c1)S(=O)(=O)c1ccc(N2CCC(O)CC2)cc1 [Compound 15, N-(3-Chloro-phenyl)-4-(4-hydroxy-piperidin-1-yl)-N-isobutyl-benzenesulfonamide]
0.01 µM	CC(C)CN(Cc1ccc(Cl)cc1)S(=O)(=O)c1ccc(NC2CCN(S(C)(=O)=O)CC2)cc1 [Compound 91, N-(4-Chloro-benzyl)-N-isobutyl-4-(1-methanesulfonyl-piperidin-4-ylamino)-benzenesulfonamide]
0.108 µM	CC(C)CN(c1cccc(Cl)c1)S(=O)(=O)c1ccc(OC2CCN(C(N)=O)CC2)cc1 [Compound 35, 4-{4-[(3-Chloro-phenyl)-isobutyl-sulfamoyl]-phenoxy}-piperidine-1-carboxylic acid amide]
0.066 µM	CC(C)CN(c1cccc(Cl)c1)S(=O)(=O)c1ccc(NC2CCN(C(N)=O)CC2)cc1 [Compound 36, 4-{4-[(3-Chloro-phenyl)-isobutyl-sulfamoyl]-phenylamino}-piperidine-1-carboxylic acid amide]
0.102 µM	CC(C)CN(Cc1ccc(OC(F)(F)F)cc1)S(=O)(=O)c1ccc(N2CCN(S(C)(=O)=O)CC2)cc1 [Compound 64, N-Isobutyl-4-(4-methanesulfonyl-piperazin-1-yl)-N-(4-trifluoromethoxy-benzyl)-benzenesulfonamide]
0.051 µM	CN(C)S(=O)(=O)N1CCN(c2ccc(S(=O)(=O)N(Cc3ccccc3C(F)(F)F)C(C)(C)C)cc2)CC1 [Compound 82, 4-{4-[tert-Butyl-(2-trifluoromethyl-benzyl)-sulfamoyl]-phenyl}-piperazine-1-sulfonic acid dimethylamide]
0.128 µM	CC(C)CN(c1ccccc1Cl)S(=O)(=O)c1ccc(N2CCC(NS(C)(=O)=O)CC2)cc1 [Compound 24, N-(2-Chloro-phenyl)-N-isobutyl-4-(4-methanesulfonylamino-piperidin-1-yl)-benzenesulfonamide]
0.164 µM	CC(C)CN(c1cccc(Cl)c1)S(=O)(=O)c1ccc(O[C@@H]2CCCN(S(C)(=O)=O)C2)cc1 [Compound 42, N-(3-Chloro-phenyl)-N-isobutyl-4-((R)-1-methanesulfonyl-piperidin-3-yloxy)-benzenesulfonamide]
0.258 µM	CC(=O)N1CCC(Nc2ccc(S(=O)(=O)N(CC(C)C)c3cccc(Cl)c3)cc2)CC1 [Compound 31, 4-(1-Acetyl-piperidin-4-ylamino)-N-(3-chloro-phenyl)-N-isobutyl-benzenesulfonamide]
0.087 µM	CC(=O)N1CCN(c2ccc(S(=O)(=O)N(Cc3ccccc3C(F)(F)F)CC(F)(F)F)cc2)CC1 [Compound 80, 4-(4-Acetyl-piperazin-1-yl)-N-(2,2,2-trifluoro-ethyl)-N-(2-trifluoromethyl-benzyl)-benzenesulfonamide]
0.528 µM	CC(C)CN(c1ccccc1Cl)S(=O)(=O)c1cccc(N2CCN(S(C)(=O)=O)CC2)c1 [Compound 25, N-(2-Chloro-phenyl)-N-isobutyl-3-(4-methanesulfonyl-piperazin-1-yl)-benzenesulfonamide]
0.024 µM	CC(C)CN(Cc1ccccc1C(F)(F)F)S(=O)(=O)c1ccc(N2CCC(C(N)=O)CC2)cc1 [Compound 83, 1-{4-[Isobutyl-(2-trifluoromethyl-benzyl)-sulfamoyl]-phenyl}-piperidine-4-carboxylic acid amide]
0.117 µM	CC(C)CN(c1cccc(Cl)c1)S(=O)(=O)c1ccc(N[C@@H]2CCCN(S(C)(=O)=O)C2)cc1 [Compound 44, N-(3-Chloro-phenyl)-N-isobutyl-4-((R)-1-methanesulfonyl-piperidin-3-ylamino)-benzenesulfonamide]
0.029 µM	CS(=O)(=O)N1CCC(Oc2ccc(S(=O)(=O)N(c3cccc(F)c3)C3CCC3)cc2)CC1 [Compound 4, N-Cyclobutyl-N-(3-fluoro-phenyl)-4-(1-methanesulfonyl-piperidin-4-yloxy)-benzenesulfonamide]
0.008 µM	CC(C)CN(c1cc(F)ccc1F)S(=O)(=O)c1ccc(OC2CCN(S(C)(=O)=O)CC2)cc1 [Compound 51, N-(2,5-Difluoro-phenyl)-N-isobutyl-4-(1-methanesulfonyl-piperidin-4-yloxy)-benzenesulfonamide]
0.081 µM	CC(C)CN(c1ccccc1Cl)S(=O)(=O)c1ccc(N2CCN(S(=O)(=O)N(C)C)CC2)cc1 [Compound 20, 4-{4-[(2-Chloro-phenyl)-isobutyl-sulfamoyl]-phenyl}-piperazine-1-sulfonic acid dimethylamide]

— patent publication US9382222B2, “Benzyl sulfonamide derivatives as RORc modulators” (Genentech, Inc., priority 2012, dated 2016)
